In US20100093744A1, “THIOGLUCOSE SPIROKETAL DERIVATIVE AND USE THEREOF AS THERAPEUTIC AGENT FOR DIABETES” (Chugai Seiyaku Kabushiki Kaisha, priority 2007, published 2010) one finds IC50 data, which are given here for one compound.

In this test the target is T1, human SGLT2 (Homo sapiens, UniProt P31639).
T1 construct: expressed in transfected cells
T1 sequence (P31639 1-672): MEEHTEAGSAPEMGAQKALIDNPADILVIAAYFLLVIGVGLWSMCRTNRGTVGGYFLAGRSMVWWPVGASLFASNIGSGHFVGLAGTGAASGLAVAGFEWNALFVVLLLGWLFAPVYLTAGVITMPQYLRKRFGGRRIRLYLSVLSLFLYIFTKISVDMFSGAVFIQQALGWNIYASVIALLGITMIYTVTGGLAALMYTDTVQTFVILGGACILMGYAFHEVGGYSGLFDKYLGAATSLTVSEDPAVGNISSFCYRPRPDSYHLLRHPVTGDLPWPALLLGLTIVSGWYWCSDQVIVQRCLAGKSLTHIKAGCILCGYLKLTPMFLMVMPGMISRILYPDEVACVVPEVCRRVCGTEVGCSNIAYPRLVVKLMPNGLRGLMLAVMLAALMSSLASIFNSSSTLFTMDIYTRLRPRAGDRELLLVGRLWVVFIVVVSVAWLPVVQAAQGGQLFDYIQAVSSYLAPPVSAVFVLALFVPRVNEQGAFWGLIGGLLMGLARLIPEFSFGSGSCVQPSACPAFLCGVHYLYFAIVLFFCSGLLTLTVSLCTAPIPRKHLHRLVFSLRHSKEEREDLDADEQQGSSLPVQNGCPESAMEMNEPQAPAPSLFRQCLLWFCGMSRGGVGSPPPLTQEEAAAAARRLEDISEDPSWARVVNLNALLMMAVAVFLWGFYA
In words: Inhibition of methyl-α-D-glucopyranoside uptake in CHO cells stably expressing human SGLT2. Particulars: methyl-α-D-(U-14C)glucopyranoside uptake, 37° C., 45 minutes, read-out: ICH value for the inhibition of SGLT2. In kind it is cell-based. On the procedure:
Assay for Evaluating Inhibition of Activity of Human Na^+-Glucose Cotransporter (SGLT1 and SGLT2)
Human SGLT2 cDNA was amplified by PCR with a cDNA library derived from human kidney (Clontech) as a template, synthetic DNA primers, and KOD+ DNA Polymerase. The amplified cDNA was inserted into pcRII-Topo vector by using a Topo TA Cloning Dual Promoter kit. E. coli competent cells (TPO10) were transformed with the plasmid vector, and then cultured in LB medium containing ampicillin (50 mg/L) to grow ampicillin-resistant clones. The plasmid vector containing human SGLT2 cDNA was purified from the clone in a standard manner. Human SGLT2 cDNA added restriction enzyme recognition sites (Xho I at 5′-end, Hind III at 3′-end) was amplified by PCR with the plasmid vector as a template, synthetic DNA primers containing an additional restriction enzyme recognition site, and KOD+ DNA Polymerase. This amplified cDNA was digested with Xho I and Hind III, and the resulting fragment was ligated into expression vector pcDNA3.1(−) digested with Xho I and Hind III by using a Rapid DNA Ligation kit. E. coli competent cells (DH5α) were transformed with the ligated expression vector and grown in ampicillin-containing LB medium. Human SGLT2 expression vector was purified from the ampicillin-resistant clone in a standard manner. […]

As for `CCc1ccc(Cc2ccc3c(c2)[C@]2(OC3)S[C@H](CO)[C@@H](O)[C@H](O)[C@H]2O)cc1` [Example 1, (1S,3′R,4′S,5′S,6′R)-6-[(4-ethylphenyl)methyl]-3′,4′,5′,6′-tetrahydro-6′-(hydroxymethyl)-spiro[isobenzofuran-1(3H),2′-[2H]thiopyran]-3′,4′,5′-triol], the IC50 was 0.012 µM.
